Data: patent publication US20220315578A1, “BRD9 BIFUNCTIONAL DEGRADERS AND THEIR METHODS OF USE” (NOVARTIS AG, priority 2019, published 2022)

Target: T1, BRD9-GFP (Homo sapiens, UniProt Q9H8M2)
T1 construct: CHYSEL (2A cis-acting hydrolase element) remnant after GFP; mCherry is split off as a separate protein (C); expressed in transfected cells; host or cells: HEK293A cells (Invitrogen R70507), lentiviral transduction with pLenti6-BRD9-GFP-CHYSEL-mCherry, blasticidin selection
T1 sequence (Q9H8M2 1-597): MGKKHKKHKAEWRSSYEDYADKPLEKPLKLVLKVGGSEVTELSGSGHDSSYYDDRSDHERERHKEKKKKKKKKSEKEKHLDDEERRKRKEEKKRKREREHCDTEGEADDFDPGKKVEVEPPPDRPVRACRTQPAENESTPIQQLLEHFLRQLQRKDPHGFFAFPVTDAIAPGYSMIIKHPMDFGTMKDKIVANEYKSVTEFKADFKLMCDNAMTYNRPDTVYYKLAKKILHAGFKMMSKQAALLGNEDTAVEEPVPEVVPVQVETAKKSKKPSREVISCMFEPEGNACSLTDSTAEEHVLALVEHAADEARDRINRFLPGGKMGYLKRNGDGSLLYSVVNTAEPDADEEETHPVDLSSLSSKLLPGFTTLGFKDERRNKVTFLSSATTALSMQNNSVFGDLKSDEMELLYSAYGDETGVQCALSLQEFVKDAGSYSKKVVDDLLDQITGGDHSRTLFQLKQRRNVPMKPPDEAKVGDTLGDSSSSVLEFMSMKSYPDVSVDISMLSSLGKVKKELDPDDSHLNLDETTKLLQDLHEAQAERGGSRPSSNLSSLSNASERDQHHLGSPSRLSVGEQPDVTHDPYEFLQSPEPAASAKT
Test: BRD9-GFP protein abundance flow cytometry assay in HEK293A cells
Assay type: cell-based
Conditions: HEK293A-BRD9-GFP-CHYSEL-mCherry cells; for BRD9 Deg Amax %: 24 h, % protein remaining at the concentration at which maximum degradation is seen; for DC50: 24 h at 37° C., 10-point 1:3 dilution, concentration at which 50% maximal degradation was observed
Procedure: Compounds of the invention were tested in the following cellular assays. The terms in Table 1 are defined as follows: DC50 refers to the concentration at which 50% maximal degradation was observed; deg Amax is the extent of degradation and the value refers to the % protein remaining at the concentration at which maximum degradation is seen.
BRD9-GFP protein abundance flow cytometry assay in HEK293A cells: Degradation of BRD9 was measured in HEK293A cells expressing BRD9-GFP and mCherry from a stably integrated second generation bicistronic BRD9-GFP-CHYSELmCherry construct. Reduction of the GFP signal measured by flow cytometry served as readout for BRD9 degradation after degrader treatment.
The bicistronic BRD9-GFP-CHYSEL-mCherry construct is based on a pLenti6-DEST vector backbone where a GFP-CHYSEL-mCherry cassette was synthesized and inserted downstream of the DEST cassette by Gibson assembly resulting in the new gateway compatible vector pLenti6-DEST-GFP-CHYSEL-mCherry to allow Gateway cloning with pENTR221-BRD9 (w/o ATG) to obtain the final sensor construct pLenti6-BRD9-GFP-CHYSEL-mCherry.
HEK293 Å-BRD9-GFP-CHYSEL-mCherry sensor cells were generated by lentiviral vector transduction using the pLenti6-BRD9-GFP-CHYSEL-mCherry sensor construct described before. […] The mix was incubated for another 20 min at RT and then added to 1 ml of a freshly prepared suspension of HEK293FT cells in a well of a 6-well plate (concentration 1.2×10^6 cells/ml). 1 day after transfection, the medium was replaced with 1.5 ml of complete growth medium (DMEM high Glucose+10% FCS+1% L-Glutamine+1% NEAA+1% NaPyr.). 48 h post transfection supernatant containing viral transducing particles was collected and frozen at −80° C. […] Infection was performed with […] of collected supernatant containing viral transducing particles in 1 ml medium including 8 μg/ml polybrene. 24 h post infection, stably transfected cells were selected with blasticidin at a concentration of 8 μg/ml.
Stable HEK293 Å-BRD9-GFP-CHYSEL-mCherry cells were maintained in complete growth medium (DMEM high Glucose+10% FCS+1% L-Glutamine+1% NEAA+1% NaPyr.) with passaging performed twice per week. On Day 0, HEK293 Å-BRD9-GFP-CHYSEL-mCherry cells were seeded at 10,000 cells/well in a 96-well microtiter plate in […] complete medium. On Day 1, cells were treated in duplicate with 10-point 1:3 dilution series of compound using the HP D300 Digital Dispenser (Tecan). DMSO concentrations were normalized across the plate to 0.1%. On Day 2, after 24 h of incubation at 37° C., treatment media was discarded, cells rinsed with 100 ul/well PBS and then detached using 40 ul trypsin/well for 5 min. Trypsin was neutralized with 100 ul/well PBS+20% FCS). Flow cytometry was performed on the samples using the Beckman Coulter CytoFLEX flow cytometer. Cell identification was then performed using forward (FSC) vs. side scatter (SSC) plots. Single cell discrimination is performed using FSC-Width (FSC-W) vs. FSC-Height (FSC-H) plots. Median GFP/mCherry ratio values for 5,000 single cells are used to determine BRD9 levels. Median GFP/mCherry ratio values from HEK293 Å-mCherry are used as a background signal and thus defining 0% BRD9 signal. Median GFP/mCherry ratio values from DMSO treated HEK293 Å-BRD9-GFP-CHYSEL-mCherry are used to define 100% BRD9 signal for subsequent DC50 curves (concentration at 50% BRD9 degradation). Concentration response curves plotting relative reduction of the GFP/mCherry ratio signal (measured by flow cytometry) versus 10 compound concentrations (starting concentration […], 3 fold dilution steps) of the compounds allowed generation of DC50 values. Data is shown in Tables 2 and 3, in which, DC50 refers to the concentration at which 50% maximal degradation was observed; deg Amax is the extent of degradation and the value refers to the % protein remaining at the concentration at which maximum degradation is seen.

Row | SMILES | BRD9 Deg Amax % | DC50
1 | COc1cc(-c2cn(C)c(=O)c(C)c2C)ccc1CN1CCN(CC2CCN(C(=O)c3cccc(N4CCC(=O)NC4=O)c3)CC2)CC1 [Compound A15, 1-(3-(4-((4-(2-Methoxy-4-(1,4,5-trimethyl-6-oxo-1,6-dihydropyridin-3-yl)benzyl)piperazin-1-yl)methyl)piperidine-1-carbonyl)phenyl)dihydropyrimidine-2,4(1H,3H)-dione] | 29.47% | 0.049 µM
2 | COc1cc(-c2cc(C)c(=O)n(C)c2)c(OC)cc1CN1CCC(OC2CCN(C(=O)c3cccc(N4CCC(=O)NC4=O)c3)CC2)CC1 [Compound A16, 1-(3-(4-((1-(4-(1,5-Dimethyl-6-oxo-1,6-dihydropyridin-3-yl)-2,5-dimethoxybenzyl)piperidin-4-yl)oxy)piperidine-1-carbonyl)phenyl)dihydropyrimidine-2,4(1H,3H)-dione] | 6.37% | 0.032 µM
3 | COc1cc(-c2cn(C)c(=O)c(C)c2C)c(OC)cc1CN1CCC(OC2CCN(C(=O)c3ccc(Cl)c(N4CCC(=O)NC4=O)c3)CC2)CC1 [Compound A18, 1-(2-Chloro-5-(4-((1-(2,5-dimethoxy-4-(1,4,5-trimethyl-6-oxo-1,6-dihydropyridin-3-yl)benzyl)piperidin-4-yl)oxy)piperidine-1-carbonyl)phenyl)dihydropyrimidine-2,4(1H,3H)-dione] | 11.83% | 0.015 µM
4 | COc1cc(-c2cn(C)c(=O)c3cnccc23)c(OC)cc1OC1CCN(CC2CCN(C(=O)c3ccc(OC)c(N4CCC(=O)NC4=O)c3)CC2)CC1 [Compound A20, 1-(5-(4-((4-(2,5-Dimethoxy-4-(2-methyl-1-oxo-1,2-dihydro-2,7-naphthyridin-4-yl)phenoxy)piperidin-1-yl)methyl)piperidine-1-carbonyl)-2-methoxyphenyl)dihydropyrimidine-2,4(1H,3H)-dione] | 9.75% | 0.014 µM
5 | COc1cc(-c2cn(C)c(=O)c3cnccc23)c(OC)cc1CN1CCN(CC2CCN(C(=O)c3ccc(OC)c(N4CCC(=O)NC4=O)c3)CC2)CC1 [Compound A23, 1-(5-(4-((4-(2,5-Dimethoxy-4-(2-methyl-1-oxo-1,2-dihydro-2,7-naphthyridin-4-yl)benzyl)piperazin-1-yl)methyl)piperidine-1-carbonyl)-2-methoxyphenyl)dihydropyrimidine-2,4(1H,3H)-dione] | 10.64% | 0.016 µM
6 | COc1ccc(C(=O)N2CCC(CN3CCN(Cc4c(OC)cc(-c5cn(C)c(=O)c6cnccc56)cc4OC)CC3)CC2)cc1N1CCC(=O)NC1=O [Compound A24, 1-(5-(4-((4-(2,6-Dimethoxy-4-(2-methyl-1-oxo-1,2-dihydro-2,7-naphthyridin-4-yl)benzyl)piperazin-1-yl)methyl)piperidine-1-carbonyl)-2-methoxyphenyl)dihydropyrimidine-2,4(1H,3H)-dione] | 13.31% | 0.027 µM
7 | COc1cc(-c2cn(C)c(=O)c3cnccc23)c(OC)cc1/C=C/C(=O)N1CCC(OC2CCN(C(=O)c3ccc(OC)c(N4CCC(=O)NC4=O)c3)CC2)CC1 [Compound A27, (E)-1-(5-(4-((1-(3-(2,5-dimethoxy-4-(2-methyl-1-oxo-1,2-dihydro-2,7-naphthyridin-4-yl)phenyl)acryloyl)piperidin-4-yl)oxy)piperidine-1-carbonyl)-2-methoxyphenyl)dihydropyrimidine-2,4(1H,3H)-dione] | 12.02% | 0.049 µM

The next compounds have a lower DC50 than those just listed; values first:

Row | BRD9 Deg Amax % | DC50 | SMILES
8 | 33.06% | 0.003 µM | COc1cc(-c2cn(C)c(=O)c(C)c2C)ccc1CN1CCN(CC2CCN(C(=O)c3ccc(Cl)c(N4CCC(=O)NC4=O)c3)CC2)CC1 [Compound A14, 1-(2-Chloro-5-(4-((4-(2-methoxy-4-(1,4,5-trimethyl-6-oxo-1,6-dihydropyridin-3-yl)benzyl)piperazin-1-yl)methyl)piperidine-1-carbonyl)phenyl)dihydropyrimidine-2,4(1H,3H)-dione]
9 | 32.92% | 0.011 µM | COc1ccc(C(=O)N2CCC(CN3CCC(Oc4ccc(-c5cn(C)c(=O)c6cnccc56)cc4Cl)CC3)CC2)cc1N1CCC(=O)NC1=O [Compound A17, 1-(5-(4-((4-(2-Chloro-4-(2-methyl-1-oxo-1,2-dihydro-2,7-naphthyridin-4-yl)phenoxy)piperidin-1-yl)methyl)piperidine-1-carbonyl)-2-methoxyphenyl)dihydropyrimidine-2,4(1H,3H)-dione]
10 | 17.02% | 0.003 µM | COc1cc(-c2cn(C)c(=O)c(C)c2C)cc(OC)c1OCC1CCN(CC2CCN(C(=O)c3ccc(Cl)c(N4CCC(=O)NC4=O)c3)CC2)CC1 [Compound A19, 1-(2-Chloro-5-(4-((4-((2,6-dimethoxy-4-(1,4,5-trimethyl-6-oxo-1,6-dihydropyridin-3-yl)phenoxy)methyl)piperidin-1-yl)methyl)piperidine-1-carbonyl)phenyl)dihydropyrimidine-2,4(1H,3H)-dione]
11 | 12.12% | 0.001 µM | COc1cc(-c2cn(C)c(=O)c(C)c2C)cc(OC)c1CCN1CCC(OC2CCN(C(=O)c3ccc(Cl)c(N4CCC(=O)NC4=O)c3)CC2)CC1 [Compound A21, 1-(2-Chloro-5-(4-((1-(2,6-dimethoxy-4-(1,4,5-trimethyl-6-oxo-1,6-dihydropyridin-3-yl)phenethyl)piperidin-4-yl)oxy)piperidine-1-carbonyl)phenyl)dihydropyrimidine-2,4(1H,3H)-dione]
12 | 11.18% | 0.006 µM | COc1cc(-c2cn(C)c(=O)c(C)c2C)cc(OC)c1CCN1CCC(OC2CCN(C(=O)c3cccc(N4CCC(=O)NC4=O)c3)CC2)CC1 [Compound A22, 1-(3-(4-((1-(2,6-Dimethoxy-4-(1,4,5-trimethyl-6-oxo-1,6-dihydropyridin-3-yl)phenethyl)piperidin-4-yl)oxy)piperidine-1-carbonyl)phenyl)dihydropyrimidine-2,4(1H,3H)-dione]
13 | 18.22% | 0.01 µM | COc1cc(-c2cn(C)c(=O)c3cnccc23)cc(OC)c1CCN1CCC(OC2CCN(C(=O)COc3ccc(N4CCC(=O)NC4=O)cc3)CC2)CC1 [Compound A25, 1-(4-(2-(4-((1-(2,6-Dimethoxy-4-(2-methyl-1-oxo-1,2-dihydro-2,7-naphthyridin-4-yl)phenethyl)piperidin-4-yl)oxy)piperidin-1-yl)-2-oxoethoxy)phenyl)dihydropyrimidine-2,4(1H,3H)-dione]
